Measurements reported in US20200239962A1, “COMPOSITIONS AND METHODS FOR DETECTING A NEOPLASIA” (The Johns Hopkins University, priority 2010, published 2020).

Tested on: BNC1 and ADAMTS1 gene expression in pancreatic cancer cell lines (Panc1, MIA-PaCa2, Capan1, PL45)
Test: Quantitative RT-PCR re-expression of silenced BNC1 and ADAMTS1 after drug treatment
Format: cell-based, human
Conditions: 5 uM DAC or 300 nM TSA, relative to mock-treated cells; TSA result excepts PL45
Procedure: FIGS. 2A, 2B, and 2C depict promoter methylation gels and corresponding bar graphs, a CpG methylation diagram, and a schematic depicting methylation-on-bead (MOB) technology, respectively. […] M=methylation signal; U=unmethylated signal. IVD=in vitro methylated DNA. Real-time RT-PCR expression is shown as fold change ±SE relative to mock-treated cells during 5 uM 5-Aza-deoxycitidine (DAC) and 300 nM Trichostatin A (TSA) treatments. […] The BNC1 promoter regions is depicted as a line, with CpG regions designated as vertical slashes. TIS indicates the transcriptional start site. Location of CpG sites (bisulfite priners (BST): upstream region from −331 to +36 relative to transcriptional start site). […] Samples are analyzed using MS-qFRET or gel electrophoresis.
This genome-wide DNA hypermethylome screening is based on a pharmacological approach using 5-deoxy-azacytidineand TSA, which has shown an excellent correlation between promoter DNA methylation and inhibition of gene expression and re-expression after treatment with a DNA demethylating drug, such as 5-deoxy-azacytidine, in prior studies on breast and colorectal cancer. Here, promoter methylation of BNC1 and ADAMTS1 was tested, and correlated with a lack of gene expression in pancreatic cancer cell lines (Panc1, MIA-PaCa2, Capan1, and PL45) using quantitative RT-PCR (qRT-PCR) (FIG. 2A, upper panel). […]

SMILES | re-expression of BNC1 and ADAMTS1 (qRT-PCR)
CC(/C=C/C(=O)NO)=C\[C@@H](C)C(=O)c1ccc(N(C)C)cc1 [TSA, Trichostatin A] | minimal re-expression
Nc1ncn([C@H]2C[C@H](O)[C@@H](CO)O2)c(=O)n1 [5-deoxy-azacytidine] | significant re-expression
